Reference: ChEMBL document CHEMBL6087420, “Synthesis and pharmacodynamic evaluation of 2-aminoindole derivatives against influenza A virus in vitro/vivo” (Eur J Med Chem, 2025)
Active and inactive are the calls of the source. No cut-off for these calls is given here.

How the values were obtained:
Influenza A virus [1] = assay: Inhibition of influenza A virus infection induced apoptosis in MDCK cells infected with influenza virus assessed as early apoptotic cells at 25 uM incubated for 36 hrs by AnnexinV-FITC/PI staining based flow cytometry (reference value: 18.2%); type: functional; set-up: scale not given: the % may be the effect or the level left
Influenza A virus [2] = assay: Antiviral activity against influenza A virus infected in human A549 cells assessed as inhibition of IL-6 expression by qRT-PCR analysis; type: functional, organism-based
Influenza A virus [3] = assay: Antiviral activity against influenza A virus infected in human A549 cells assessed as inhibition of IFN-beta expression by qRT-PCR analysis; type: functional, organism-based
Influenza A virus [4] = assay: Anti-influenza activity against influenza A virus H1NI (A/Virginia/ATCC2/2009) infected in dog MDCK cells incubated for 72 hrs by MTT assay; type: functional, organism-based; settings: Influenza A virus, H1NI (A/Virginia/ATCC2/2009), MDCK, 72 h
Influenza A virus [5] = assay: Antiviral activity against influenza A virus infected in human A549 cells assessed as inhibition of MAVS expression by qRT-PCR analysis; type: functional, organism-based
Influenza A virus [6] = assay: Antiviral activity against influenza A virus infected in A549 cells assessed as decrease in IAV-M2 expression at 25 to 100 uM cells pretreated for 48 hrs followed by infected with virus by green fluorescent labelling based confocal microscopy; type: functional, organism-based; settings: dose 25-100 µM
[7] = Toxicity in healthy BALB/c mouse assessed as change in blood indicators at 25 to 100 mg/kg administered through gavage for 6 days; type: organism-based; settings: in vivo, po, 144 h, dose 25-100 mg/kg, time 6 day
Influenza A virus [8] = assay: Antiviral activity against influenza A virus infected in A549 cells assessed as decrease in IAV-NP expression at 25 to 100 uM cells pretreated for 48 hrs followed by infected with virus by green fluorescent labelling based confocal microscopy; type: functional, organism-based; settings: dose 25-100 µM
Influenza A virus [9] = assay: Antiviral activity against influenza A virus H1NI (A/Weiss/43) infected in human A549 cells assessed as reduction in viral titers in supernatants at 0.25 to 100 uM; type: functional, organism-based; settings: dose 0.25-100 µM
Influenza A virus [10] = assay: In vivo antiviral activity against influenza A virus infected in BALB/c mouse assessed as reduction in IL-6 mRNA level in lung at 25 to 100 mg/kg measured after 6 dpi; type: functional, organism-based; settings: dose 25-100 mg/kg
[11] = Toxicity in healthy BALB/c mouse assessed as pathological change in lungs at 25 to 100 mg/kg administered through gavage for 6 days; type: organism-based; settings: in vivo, po, 144 h, dose 25-100 mg/kg, time 6 day
Influenza A virus [12] = assay: Inhibition of influenza A virus infection induced apoptosis in MDCK cells infected with influenza virus assessed as late apoptotic cells at 100 uM incubated for 36 hrs by AnnexinV-FITC/PI staining based flow cytometry (reference value: 13.2%); type: functional; set-up: scale not given: the % may be the effect or the level left
Influenza A virus [13] = assay: In vivo antiviral activity against influenza A virus infected in BALB/c mouse assessed as reduction in OAS1 mRNA level in lung at 25 to 100 mg/kg measured after 6 dpi; type: functional, organism-based; settings: dose 25-100 mg/kg
Influenza A virus [14] = assay: Antiviral activity against influenza virus infected in A549 cells assessed as inhibition in inflammatory cell invasion; type: functional, organism-based
Influenza A virus [15] = assay: Antiviral activity against influenza A virus infected in A549 cells assessed as decrease in IAV-M2 mRNA level measured after 1 to 3 days of viral infection; type: functional, organism-based; settings: time 1-3 day
Influenza A virus [16] = assay: Antiviral activity against influenza A virus infected in human A549 cells assessed as inhibition of IRF3 expression by qRT-PCR analysis; type: functional, organism-based
Influenza A virus [17] = assay: Antiviral activity against influenza A virus infected in A549 cells assessed as decrease in IAV-NP expression pretreated for 48 hrs followed by infected with virus by Western blotting analysis; type: functional, organism-based; settings: dose 25-100 µM
Influenza A virus [18] = assay: In vivo antiviral activity against influenza A virus infected in BALB/c mouse assessed as reduction in RIG-I mRNA level in lung at 25 to 100 mg/kg measured after 6 dpi; type: functional, organism-based; settings: dose 25-100 mg/kg
Influenza A virus [19] = assay: Antiviral activity against influenza A virus H1NI (A/Weiss/43) infected in human A549 cells assessed as reduction in IAV-NP mRNA by qRT-PCR assay; type: functional, organism-based
Influenza A virus [20] = assay: Antiviral activity against influenza A virus infected in A549 cells assessed as decrease in IAV-M2 expression pretreated for 48 hrs followed by infected with virus by Western blotting analysis; type: functional, organism-based; settings: dose 25-100 µM
[21] = Toxicity in healthy BALB/c mouse assessed as pathological change in spleen at 25 to 100 mg/kg administered through gavage for 6 days; type: organism-based; settings: in vivo, po, 144 h, dose 25-100 mg/kg, time 6 day
Influenza A virus [22] = assay: In vivo antiviral activity against influenza A virus infected in BALB/c mouse assessed as reduction in Caspase-1 mRNA level in lung at 25 to 100 mg/kg measured after 6 dpi; type: functional, organism-based; settings: dose 25-100 mg/kg
Influenza A virus [23] = assay: Antiviral activity against influenza A virus infected in human A549 cells assessed as inhibition of RIG-1 expression by qRT-PCR analysis; type: functional, organism-based
Influenza A virus [24] = assay: In vivo antiviral activity against influenza A virus infected in BALB/c mouse assessed as reduction in TLR-3 mRNA level in lung at 25 to 100 mg/kg measured after 6 dpi; type: functional, organism-based; settings: dose 25-100 mg/kg
Influenza A virus [25] = assay: In vivo antiviral activity against influenza A virus infected in BALB/c mouse assessed as reduction in apoptotic cells at 25 to 100 mg/kg measured after 6 dpi by TUNEL assay; type: functional, organism-based; settings: dose 25-100 mg/kg
Influenza A virus [26] = assay: Inhibition of influenza A virus infection induced apoptosis in MDCK cells assessed as late apoptotic cells at 100 uM incubated for 36 hrs by AnnexinV-FITC/PI staining based flow cytometry (reference value: 0.70%); type: functional; set-up: scale not given: the % may be the effect or the level left
Influenza A virus [27] = assay: Inhibition of influenza A virus infection induced apoptosis in MDCK cells infected with influenza virus assessed as early apoptotic cells at 50 uM incubated for 36 hrs by AnnexinV-FITC/PI staining based flow cytometry (reference value: 18.2%); type: functional; set-up: scale not given: the % may be the effect or the level left
Influenza A virus [28] = assay: Antiviral activity against influenza A virus infected in human A549 cells assessed as inhibition of TLR3 expression by qRT-PCR analysis; type: functional, organism-based
Influenza A virus [29] = assay: Antiviral activity against influenza A virus H1N1 infected in MDCK cells assessed as decrease in virus infection-induced cytopathic effect; type: functional, organism-based
[30] = Cytotoxicity against dog MDCK cells after 72 hrs incubation by MTT assay; type: toxicity, cell-based, Canis lupus familiaris
Influenza A virus [31] = assay: In vivo antiviral activity against influenza A virus infected in BALB/c mouse assessed as reduction in IFN-gamma mRNA level in lung at 25 to 100 mg/kg measured after 6 dpi; type: functional, organism-based; settings: dose 25-100 mg/kg
Influenza A virus [32] = assay: Inhibition of influenza A virus infection induced apoptosis in MDCK cells infected with influenza virus assessed as early apoptotic cells at 100 uM incubated for 36 hrs by AnnexinV-FITC/PI staining based flow cytometry (reference value: 18.2%); type: functional; set-up: scale not given: the % may be the effect or the level left
Influenza A virus [33] = assay: Inhibition of influenza A virus infection induced apoptosis in MDCK cells infected with influenza virus assessed as late apoptotic cells at 50 uM incubated for 36 hrs by AnnexinV-FITC/PI staining based flow cytometry (reference value: 13.2%); type: functional; set-up: scale not given: the % may be the effect or the level left
Influenza A virus [34] = assay: Antiviral activity against influenza A virus infected in human A549 cells assessed as inhibition of IFN-gamma expression by qRT-PCR analysis; type: functional, organism-based
[35] = Toxicity in healthy BALB/c mouse assessed as pathological change in liver at 25 to 100 mg/kg administered through gavage for 6 days; type: organism-based; settings: in vivo, po, 144 h, dose 25-100 mg/kg, time 6 day

In the case of COc1ccc2c(c1)c(-c1ccccc1)c(NS(C)(=O)=O)n2S(=O)(=O)c1ccc(C)cc1, the Activity (Influenza A virus [1]) is reported as 17.6%, the Activity (Influenza A virus [2]) is reported as “Active” and the Activity (Influenza A virus [3]) is reported as “Active”. The EC50 (Influenza A virus [4]) was 12.9 µM, the Activity (Influenza A virus [5]) was “Active” and the Activity (Influenza A virus [6]) was “Active”. The Activity [7] was “Non-toxic”, the Activity (Influenza A virus [8]) was “Active” and the Activity (Influenza A virus [9]) was “Active”. For the same molecule, the Activity (Influenza A virus [10]) was “Active”, the Activity [11] was “Non-toxic” and the Activity (Influenza A virus [12]) was 1.62%. For the same molecule, the Activity (Influenza A virus [13]) was “Active”, the Activity (Influenza A virus [14]) was “Active” and the Activity (Influenza A virus [15]) was “Active”. For the same molecule, the Activity (Influenza A virus [16]) was “Active”, the Activity (Influenza A virus [17]) was “Dose-dependent-effect” and the Activity (Influenza A virus [18]) was “Active”. The Activity (Influenza A virus [19]) was “Active”, the Activity (Influenza A virus [20]) was “Dose-dependent-effect” and the Activity [21] was “Non-toxic”. For the same molecule, the Activity (Influenza A virus [22]) was “Active”, the Activity (Influenza A virus [23]) was “Active” and the Activity (Influenza A virus [24]) was “Active”. The Activity (Influenza A virus [25]) was “Active”, the Activity (Influenza A virus [26]) was 0.83% and the Activity (Influenza A virus [27]) was 9.21%. For the same molecule, the Activity (Influenza A virus [28]) was “Active”, the Activity (Influenza A virus [29]) was “Active” and the CC50 at 72 h [30] was 669 µM. For the same molecule, the Activity (Influenza A virus [31]) was “Active”, the Activity (Influenza A virus [32]) was 3.6% and the Activity (Influenza A virus [33]) was 4.07%. For the same molecule, the Activity (Influenza A virus [34]) was “Active” and the Activity [35] was “Non-toxic”.
